According to ChEMBL document CHEMBL1147326, “Goniotriol from Goniothalamus giganteus” (J Nat Prod, 1989):
Values after ≈ are worked out from the molar mass of the structure shown.

Tests used:
A549 = assay: Cytotoxicity against human A549 cells; type: functional; details: read-out: ED50 (the source's name)
[1] = tested on: Agrobacterium tumefaciens; assay: Antitumor activity against Agrobacterium tumefaciens-induced crown gall tumors in potato tuber by potato disk test; type: functional
Artemia = assay: Toxicity in brine shrimp; type: organism-based; details: in vivo
MCF7 = assay: Cytotoxicity against human MCF7 cells; type: functional; details: read-out: ED50 (the source's name)
HT-29 = assay: Cytotoxicity against human HT-29 cells; type: functional; details: read-out: ED50 (the source's name)

O=C1C=C[C@H](O)[C@H]([C@H](O)[C@H](O)c2ccccc2)O1 [GONIOTRIOL]
EC50 (A549): > 10 µg/mL | inhibition (INH) [1]: 38% | LC50 (Artemia): 269 ppm | EC50 (MCF7): 5.9 µg/mL (≈ 23.6 µM) | EC50 (HT-29): > 10 µg/mL
